Data reported in article PMC6996489 (Drug Design, Development and Therapy, 2020).

Tests used:
[1] = biological target: T1, human recombinant monoamine oxidase B (MAO B) (Homo sapiens, UniProt P27338); format: biochemical; details: MAO B vs MAO A
T1 sequence (P27338 1-520): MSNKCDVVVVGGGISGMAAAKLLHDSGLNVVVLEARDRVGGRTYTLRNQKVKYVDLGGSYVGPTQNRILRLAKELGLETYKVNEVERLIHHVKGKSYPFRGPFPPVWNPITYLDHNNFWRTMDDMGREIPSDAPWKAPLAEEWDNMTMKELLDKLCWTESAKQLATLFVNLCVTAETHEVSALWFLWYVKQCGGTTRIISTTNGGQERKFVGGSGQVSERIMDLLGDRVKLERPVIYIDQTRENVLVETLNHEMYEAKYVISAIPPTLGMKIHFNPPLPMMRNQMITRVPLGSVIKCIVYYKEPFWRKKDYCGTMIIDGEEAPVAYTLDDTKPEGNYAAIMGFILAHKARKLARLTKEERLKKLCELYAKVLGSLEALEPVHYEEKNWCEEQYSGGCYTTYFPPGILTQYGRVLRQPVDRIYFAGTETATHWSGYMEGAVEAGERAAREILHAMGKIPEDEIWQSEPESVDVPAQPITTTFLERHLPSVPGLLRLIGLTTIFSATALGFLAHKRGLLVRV

AChE = AChE (Homo sapiens, UniProt P22303); experiment: Acetylcholine esterase inhibition screening; format: biochemical; details: concentration of 1 µm
BuChE = BuChE (Homo sapiens, UniProt P06276); experiment: Butyrylcholine esterase inhibition screening; format: biochemical; details: concentration of 1 µm
MAO B = biological target: T2, MAO B (Homo sapiens, UniProt P27338); details: seven kynuramine concentrations, Lineweaver–Burk plots
T2 sequence (P27338 1-520): T1 sequence (P27338 1-520)

Chain of BuChE (P06276 29-602): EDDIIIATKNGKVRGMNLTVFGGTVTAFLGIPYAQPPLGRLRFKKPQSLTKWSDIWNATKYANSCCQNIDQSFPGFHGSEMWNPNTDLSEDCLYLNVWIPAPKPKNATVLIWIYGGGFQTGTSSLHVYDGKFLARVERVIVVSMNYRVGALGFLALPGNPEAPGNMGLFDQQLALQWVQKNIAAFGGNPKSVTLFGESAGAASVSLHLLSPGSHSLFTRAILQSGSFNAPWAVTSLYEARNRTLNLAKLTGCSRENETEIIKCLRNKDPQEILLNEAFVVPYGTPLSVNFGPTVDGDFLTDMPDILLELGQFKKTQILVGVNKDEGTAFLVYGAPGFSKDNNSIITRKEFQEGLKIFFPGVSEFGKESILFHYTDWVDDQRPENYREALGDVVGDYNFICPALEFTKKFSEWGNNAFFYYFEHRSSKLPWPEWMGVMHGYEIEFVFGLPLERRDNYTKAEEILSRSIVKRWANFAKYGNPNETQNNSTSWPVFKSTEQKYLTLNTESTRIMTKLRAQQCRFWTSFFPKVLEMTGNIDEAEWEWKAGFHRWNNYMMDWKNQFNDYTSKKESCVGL
Chain of AChE (P22303 32-614): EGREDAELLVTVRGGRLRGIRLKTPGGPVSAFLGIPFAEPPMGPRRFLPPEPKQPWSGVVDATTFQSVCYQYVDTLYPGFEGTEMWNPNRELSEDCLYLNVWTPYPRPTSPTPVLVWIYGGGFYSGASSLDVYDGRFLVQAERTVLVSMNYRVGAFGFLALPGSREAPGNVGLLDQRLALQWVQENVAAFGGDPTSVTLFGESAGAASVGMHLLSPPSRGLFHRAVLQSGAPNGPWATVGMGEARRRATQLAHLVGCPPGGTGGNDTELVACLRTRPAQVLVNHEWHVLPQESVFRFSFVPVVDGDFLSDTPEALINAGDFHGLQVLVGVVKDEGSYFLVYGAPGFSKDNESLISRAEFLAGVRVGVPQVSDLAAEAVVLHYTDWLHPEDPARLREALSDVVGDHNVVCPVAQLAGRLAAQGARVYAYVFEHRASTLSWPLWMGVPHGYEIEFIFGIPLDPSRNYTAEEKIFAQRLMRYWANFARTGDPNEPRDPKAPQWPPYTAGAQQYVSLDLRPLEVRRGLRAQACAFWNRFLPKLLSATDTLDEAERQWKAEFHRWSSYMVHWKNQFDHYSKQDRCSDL

fold lower affinity towards MAO B than MAO A [1] | Structure (SMILES) | inhibition of AChE at 1 µm (AChE) | inhibition of BuChE at 1 µm (BuChE) | Type of MAO B inhibition (MAO B)
8.3 fold | O=C(Nc1ccc([N+](=O)[O-])cc1[N+](=O)[O-])c1ccccc1 [Compound 7, N-(2,4-Dinitrophenyl)benzamide] |  |  | 
 | O=C(Nc1ccc([N+](=O)[O-])cc1[N+](=O)[O-])c1ccc2c(c1)OCO2 [Compound 55, N-(2,4-Dinitrophenyl)benzo[d][1,3]dioxole-5-carboxamide] | 24±1.8% | 57±4.5% | competitive
